Data: patent publication US8097625B2, “Combination of sedative and a neurotransmitter modulator, and methods for improving sleep quality and treating depression” (priority 2003, dated 2012)

Test system: subjects with insomnia related to major depressive disorder
Assay: DREAMDD clinical study: Clinical Global Impression (Severity 1=normal to 7=most extremely depressed; Global Improvement 1=very much improved to 7=very much worse)
Assay type: in vivo, human
Conditions: for CGI - Global Improvement, Mean (SD) / CGI - Global Improvement, Median / CGI - Severity, Change from Baseline, Mean (SD) / CGI - Severity, Change from Baseline, Median / CGI - Severity, Observed Value, Mean (SD) / CGI - Severity, Observed Value, Median / CGI - Severity, Change from Baseline, Least Squares Mean (SE): ITT; for CGI - Severity, Change from Baseline, Least Squares Mean (SE): ANCOVA
Experimental: Depression Response to Eszopiclone in Adults With Major Depressive Disorder (DREAMDD): A Randomized, Double-Blind, Placebo-Controlled, Parallel-Group, 8-Week, Safety and Efficacy Study of Eszopiclone 3 mg Compared to Placebo in Subjects with Insomnia Related to Major Depressive Disorder
This study was a double-blind randomized, placebo-controlled, parallel group study. […] All subjects must satisfy DSM-IV criteria for insomnia related to major depression.
Sleep, Depression, and Productivity Questionnaires and Clinical Global Impression: The following questionnaires were administered as listed below. • Epworth Sleepiness Scale (ESS): ESS was completed by the subject at Visits 2-10. The ESS is a subjective assessment of the likelihood of falling asleep in various situations. • Insomnia Severity Index (ISI): ISI was completed by the subject at Visits 3, 5, 7, 9 and 10. The ISI is a subjective assessment of sleep quality, restedness/refreshness upon arising, daytime fatigue, attention/concentration and relationship and mood disturbances. • Work Limitations Questionnaire (WLQ): WLQ was completed by the subject at Visits 3, 5, 7, 9, and 10. The WLQ is a validated self-report instrument for measuring the degree to which chronic health problems interfere with ability to perform job roles, addressing the content of the job through a demand-level methodology. • Hamilton Depression-17: HAM-D-17 was administered via IVRS at screening and rated by a trained clinician at Visits 3, 7, 9, and 10. • SF-36: SF-36 was completed by the subject at Visits 3, 7, 9 and 10. The SF-36 represents multiple operational definitions of health, including function and dysfunction, distress and well-being, objective reports and subjective ratings, and both favorable and unfavorable self-evaluations of general health status. • Clinical Global Impression (CGI): CGI was completed by the investigator at Visits 3-10 The CGI is the investigator's subjective assessment of improvement in the subject's depressive symptoms. The response on the CGI at Visit 7 (Week 4 of double-blind treatment) was used by the investigator to assess the need for increasing the dose of fluoxetine to 40 mg daily (in the morning). […] Study Conduct
Clinical Global Impression: In this test, a medical professional rates the patient's depression and whether the improvement in depression is due to the drug treatment. Question 1) Severity: Considering your total clinical experience with this particular population, how depressed is the patient at this time? Respond by indicating 1=normal, not at all depressed, 2=borderline depressed, 3=mildly depressed, 4=moderately depressed, 5=markedly depressed, 6=severely depressed, or 7=among the most extremely depressed patients. Question 2) Global Improvement: Rate total improvement whether or not, in your judgment, it is due entirely to drug treatment. Compared to his/her condition at Visit 3, how much has he/she changed?
Methods: Patients who met DSM-IV criteria for new MDD and insomnia received fluoxetine 20 mg QAM plus either eszopiclone 3 mg (n=275) or placebo (n=270) nightly for 8 weeks. Efficacy was assessed using HAMD17 and Clinical Global Impression Improvement (CGI-I) and Severity (CGI-S). Response=50% decrease from baseline HAMD17; remission=HAMD17≦7.

[1] = Visit 4 (Week 1), 3 mg nightly + fluoxetine
[2] = Visit 5 (Week 2), 3 mg nightly + fluoxetine
[3] = Visit 6 (Week 3), 3 mg nightly + fluoxetine
[4] = Visit 7 (Week 4), 3 mg nightly + fluoxetine
[5] = Visit 8 (Week 6), 3 mg nightly + fluoxetine
[6] = Visit 9 (Week 8), 3 mg nightly + fluoxetine
[7] = Visit 10 (EOT; Week 10, after single-blind wash-out), eszopiclone 3 mg group

CN1CCN(C(=O)OC2c3nccnc3C(=O)N2c2ccc(Cl)cn2)CC1 (single isomer, unassigned; (+)) [Eszopiclone, (+) 6-(5-chloro-2-pyridinyl)-6,7-dihydro-7-oxo-5H-pyrrolo[3,4b]pyrazin-5-yl 4-methylpiperazine-1-carboxylate]
CGI - Global Improvement, Mean (SD) [1]: 3.3 (0.8) | CGI - Global Improvement, Median [1]: 3.0 | CGI - Severity, Change from Baseline, Mean (SD) [1]: −0.3 (0.7) | CGI - Severity, Change from Baseline, Median [1]: 0.0 | CGI - Severity, Observed Value, Mean (SD) [1]: 4.0 (0.7) | CGI - Severity, Observed Value, Median [1]: 4.0 | CGI - Severity, Change from Baseline, Least Squares Mean (SE) [1]: −0.3 (0.0) | CGI - Global Improvement, Mean (SD) [2]: 2.9 (0.8) | CGI - Global Improvement, Median [2]: 3.0 | CGI - Severity, Change from Baseline, Mean (SD) [2]: −0.8 (0.9) | CGI - Severity, Change from Baseline, Median [2]: −1.0 | CGI - Severity, Observed Value, Mean (SD) [2]: 3.6 (0.9) | CGI - Severity, Observed Value, Median [2]: 4.0 | CGI - Severity, Change from Baseline, Least Squares Mean (SE) [2]: −0.8 (0.1) | CGI - Global Improvement, Mean (SD) [3]: 2.6 (0.9) | CGI - Global Improvement, Median [3]: 3.0 | CGI - Severity, Change from Baseline, Mean (SD) [3]: −1.1 (1.0) | CGI - Severity, Change from Baseline, Median [3]: −1.0 | CGI - Severity, Observed Value, Mean (SD) [3]: 3.2 (1.0) | CGI - Severity, Observed Value, Median [3]: 3.0 | CGI - Severity, Change from Baseline, Least Squares Mean (SE) [3]: −1.1 (0.1) | CGI - Global Improvement, Mean (SD) [4]: 2.4 (1.0) | CGI - Global Improvement, Median [4]: 2.0 | CGI - Severity, Change from Baseline, Mean (SD) [4]: −1.4 (1.1) | CGI - Severity, Change from Baseline, Median [4]: −1.0 | CGI - Severity, Observed Value, Mean (SD) [4]: 3.0 (1.1) | CGI - Severity, Observed Value, Median [4]: 3.0 | CGI - Severity, Change from Baseline, Least Squares Mean (SE) [4]: −1.3 (0.1) | CGI - Global Improvement, Mean (SD) [5]: 1.9 (0.9) | CGI - Global Improvement, Median [5]: 2.0 | CGI - Severity, Change from Baseline, Mean (SD) [5]: −1.8 (1.2) | CGI - Severity, Change from Baseline, Median [5]: −2.0 | CGI - Severity, Observed Value, Mean (SD) [5]: 2.5 (1.0) | CGI - Severity, Observed Value, Median [5]: 2.5 | CGI - Severity, Change from Baseline, Least Squares Mean (SE) [5]: −1.8 (0.1) | CGI - Global Improvement, Mean (SD) [6]: 1.9 (1.0) | CGI - Global Improvement, Median [6]: 2.0 | CGI - Severity, Change from Baseline, Mean (SD) [6]: −1.9 (1.3) | CGI - Severity, Change from Baseline, Median [6]: −2.0 | CGI - Severity, Observed Value, Mean (SD) [6]: 2.4 (1.2) | CGI - Severity, Observed Value, Median [6]: 2.0 | CGI - Severity, Change from Baseline, Least Squares Mean (SE) [6]: −1.8 (0.1) | CGI - Severity, Change from Baseline, Least Squares Mean (SE) [7]: −2.2 (0.1) | CGI - Global Improvement, Mean (SD) [7]: 1.6 (0.9) | CGI - Global Improvement, Median [7]: 1.0 | CGI - Severity, Change from Baseline, Mean (SD) [7]: −2.3 (1.2) | CGI - Severity, Change from Baseline, Median [7]: −2.0 | CGI - Severity, Observed Value, Mean (SD) [7]: 2.0 (1.0) | CGI - Severity, Observed Value, Median [7]: 2.0 | CGI-I and CGI-S scores versus placebo (p<0.05, 3 mg nightly + fluoxetine): significantly greater
